In patent publication US6888015B2, “Sphingolipid synthesis inhibitor” (Japan Science and Technology Agency, priority 2001, dated 2005):

Columns and labels:
[1] = tested on: de novo synthesis of SM in CHO cells; experiment: Metabolic labeling of lipids with [14C]serine in CHO cells; assay type: cell-based, Chinese hamster
Protocol: CHO cells are cultured in Ham's F12 medium supplemented with 10% newborn bovine serum (NBS), penicillin G (100 unit/mL) and streptomycin sulfate (100 μg/mL) at the temperature of 33° C. and 5% CO2 atmosphere. In the case of HeLa cells, Dulbecco's minimum essential medium is used as a base medium instead of Ham's F12 medium.
Further, Nutridoma medium (Ham's F12 medium containing 1% Nutridoma-SP, product of Roche Molecular Biochemicals, and 25 μg/mL of gentamicin) is used as a serum-free medium. In the case when the medium is supplemented by DMSO or drugs dissolved in DMSO, the concentration of DMSO in culture medium is adjusted to be 0.01%.
(§1) CHO cells are seeded at the density of 1.0×10^6 cell in 5 mL of F12 medium containing 10% NBS, by per 60-mm dish, and cultured at 33° C. overnight. Then, the medium is changed to 1.5 mL of Nutridoma medium if necessary, various drugs are added and incubated at 4° C. for 15 minutes. Then, after addition of [^14C] serine (0.75 μCi) or [^14 C] choline (1.0 μCi) to the medium, cells were incubated at 33° C. for various periods of time.
(§2) Cells are washed twice with 2 mL of cold phosphate-buffered saline (PBS), and lysed with 900 μL of 0.1% sodium dodecyl sulfate (SDS). Then, 800 μL and 20 μL of lysate are used for lipid extraction and determination of protein concentration, respectively.
For the analysis of lipids labeled with [C^14C] serine, lipids were separated by TLC with a solvent consisting of methylacetate/n-propanol/chloroform/methanol/0.25%KCl (25:25:25:10:9, volume ratio) as a developing solvent.
(§3) Radioactive lipid separated on the TLC plates are detected with image analyzer depicted above. After the collection of gels from TLC plates by scraping, the radioactivity of each lipid is determined by liquid scintillation counting and normalized to the protein concentration of cells.

GlcCer synthase = target: T1, GlcCer synthase (Cricetulus griseus, UniProt A0A9J7CH29); experiment: GlcCer synthase enzyme assay, CHO membrane fraction; assay type: biochemical, Chinese hamster; settings: 20 μM; substrate C6-NBD-Cer
T1 construct: Membrane fraction prepared from CHO cells is used as an enzyme source; endogenous in cells; host or cells: CHO cells, membrane fraction
T1 sequence (A0A9J7CH29 1-394): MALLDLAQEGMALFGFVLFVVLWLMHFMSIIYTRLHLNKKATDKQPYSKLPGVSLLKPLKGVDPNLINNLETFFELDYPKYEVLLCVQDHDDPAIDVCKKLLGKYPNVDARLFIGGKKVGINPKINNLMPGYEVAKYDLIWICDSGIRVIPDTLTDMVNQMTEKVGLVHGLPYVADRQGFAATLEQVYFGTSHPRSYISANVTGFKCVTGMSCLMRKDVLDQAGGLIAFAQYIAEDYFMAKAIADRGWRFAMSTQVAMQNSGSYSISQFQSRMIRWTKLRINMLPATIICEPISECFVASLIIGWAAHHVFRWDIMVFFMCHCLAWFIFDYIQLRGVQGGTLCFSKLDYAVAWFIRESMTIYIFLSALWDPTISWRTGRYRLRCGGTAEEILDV
Protocol: Membrane fraction prepared from CHO cells is used as an enzyme source.
Enzyme assays of SM synthesis and GlcCer synthase are carried out by using C6-NBD-Cer as a substrate as disclosed in Document 6.

[2] = tested on: biosynthesis of phosphatidylcholine; experiment: Metabolic labeling of lipids with [14C]choline; assay type: cell-based, Chinese hamster; settings: 1 μM, 33° C., 4 hours
Protocol: as §1, §2
For the analysis of the lipid labeled by [^14C] choline, the lipid is separated by one-dimensional TLC using chloroform/methanol/acetic acid/H2O (25:15:4:2, volume ratio) as a developing solvent. […]
as §3

CHO cells = experiment: Contents of sphingolipids and phospholipids in cells; assay type: cell-based, Chinese hamster; settings: 2.5 μM, 2 days
Protocol: CHO cells are seeded at density of 10×10^6 cells in 20 mL of F12 medium containing 10% NBS by per 150-mm dish, and incubated at 33° C. overnight. Then, after washed twice with 10 mL of serum-free F 12 medium, the cells are incubated in 20 mL of Nutridoma medium supplemented with or without 2.5 μM HPA-12 for 2 days. Each medium is replaced every 24 hours. After washed with PBS, the cells are harvested by scraping, and re-suspended in PBS. Then, lipids are extracted from the cells.
For analysis of phospholipids, extracted lipids are separated by TLC with a solvent of chloroform/methanol/acetic acid/H2O (volume ratio, 25:15:4:2).
Phosphorous contents in phospholipids are measured by the method disclosed in Document 4.
Contents of GlcCer and N-acetyl neuraminil lactosylseramide (GM3) are determined by densitometric analysis of lipids stained with Coomassie Brilliant Blue disclosed in Document 5.
Cer contents are determined by using a sn-1,2-diacylglycerol assay reagent kit (Amersham Pharmcia Biotech).

[3] = [14C]serine labeling, CHO cells
[4] = [14C]serine labeling, weaker than effect on SM (FIG. 2B)

SMILES: CCCCCCCCCCCC(=O)NC(CO)CC(O)c1ccccc1 (stereo not drawn) [HPA-12, N-(3-hydroxy-1-hydroxymethyl-3-phenylprol)dodecaneamide]
- formation of [14C]SM ([1]; 0.1 μM, 2-hour labeling with [14C]serine (FIG. 2A)): significantly inhibits
- formation of [14C] (SM), level relative to control ([1]; 1 μM, time course up to 5 hours (FIG. 2B)): approximately 30 % of the drug-free control level
- formation of [14C]SM ([1]; 2.5 μM drug, [14C]serine labeling, CHO cells (FIG. 1B)): remarkably inhibited
- concentration at which the inhibitory effect on [14C]SM formation reaches a plateau ([1]; 2-hour labeling with [14C]serine (FIG. 2A)): around 1 μM
- formation of [14C]phosphatidylethanolamine (PE) [1, 3]: does not affect
- formation of [14C]phosphatidylserine (PS) [1, 3]: does not affect
- formation of [14C]Cer [1, 4]: significantly inhibited
- formation of [14C]GlcCer [1, 4]: significantly inhibited
- C6-NBD-GlcCer formed (GlcCer synthase activity) (GlcCer synthase): 325.9 ± 17.1 pmol/mg protein/10 minutes
- inhibition of GlcCer synthase (GlcCer synthase): Neither of SM synthase nor GlcCer synthase is inhibited
- level of [14C]PC vs untreated cells [2]: almost equal
- level of [14C]SM vs drug-untreated control level [2]: about half
- content of GM3 (CHO cells): 120 % of the drug-untreated contro
- content of GlcCer (CHO cells): 150 % of the drug-untreated contro
- content of SM, lower than the drug-free control level by (CHO cells): 30%
- content of ceramide vs untreated (CHO cells): no significant difference
- Cer content (CHO cells; CHO cells): 0.40 ± 0.13 nmol/mg protein
- GM3 content (CHO cells; CHO cells): 8.5 ± 0.8 nmol/mg protein
- GlcCer content (CHO cells; CHO cells): 1.4 ± 0.1 nmol/mg protein
- PC content (composition of phospholipids) (CHO cells; CHO cells): 47.5 ± 0.2 % of total lipids recovered
- PE content (composition of phospholipids) (CHO cells; CHO cells): 30.6 ± 0.3 % of total lipids recovered
- PI/PS content (composition of phospholipids) (CHO cells; CHO cells): 13.4 ± 0.3 % of total lipids recovered
- SM content (composition of phospholipids) (CHO cells; CHO cells): 8.4 ± 0.1 % of total lipids recovered
- content of total phospholipids (CHO cells; drug-treated cells): 315±2 nmol/mg protein
